Measurements reported in patent US11946070B2, “Method of reinforcing efficacy of stem cells using ethionamide” (SAMSUNG LIFE PUBLIC WELFARE FOUNDATION, priority 2019, dated 2024).

Key:
[1] = test system: human umbilical cord mesenchymal stem cells; settings: ethionamide 50 or 100 μM; FIG. 4B
Description: (§1) First, a 3 to 4 cm piece of umbilical cord tissue was fragmented, and treated with a collagenase solution (Gibco, USA) for 60 to 90 minutes to digest an extracellular matrix, followed by digestion with 0.25% trypsin (Gibco, USA) for 30 minutes at 37° C. Subsequently, cells were obtained by adding fetal bovine serum (FBS; Biowest, USA) to the resulting product, and then performing centrifugation at 1000×g for 10 minutes, and then cultured using Minimum Essential Media (MEM; Gibco, USA) supplemented with 10% FBS and 50 μg/ml gentamycin (Gibco, USA) at 37° C. in a 5% CO2 atmosphere, and thus mesenchymal stem cells at passage 5 or 6 were used for an experiment.
(§2) 6×10^3 cells/cm 2 of the human umbilical cord mesenchymal stem cells prepared according to the method of Example 1 were seeded in a cell culture container, and simultaneously, ethionamide was treated at a concentration of 50 μM, 100 μM or 150 μM, followed by culturing for 72 hours.
Subsequently, the mesenchymal stem cells were treated with ethionamide by the same method as described above, and mRNA expression levels of antioxidation-related factors, such as HO-1, NQO1, GCLC and GCLM were measured.

[2] = test system: human umbilical cord mesenchymal stem cells; settings: ethionamide 50 or 100 μM; FIG. 4A
Description: as §1, §2
To verify whether the expression level of a paracrine factor of mesenchymal stem cells is changed by ethionamide treatment, the mesenchymal stem cells were treated with ethionamide at 50 or 100 μM, and then expression levels of a brain-derived neurotrophic factor (BDNF), a vascular endothelial cell growth factor (VEGF), insulin-like growth factor-1 (IGF-1) and a hepatocyte growth factor (HGF), which are known as paracrine factors, were measured.

`CCc1cc(C(N)=S)ccn1` [ethionamide, 2-ethylpyridine-4-carbothioamide] was tested, and the “GCLC mRNA expression level” value [1] was “significantly increases in proportion to the treated concentration of ethionamide”, the “GCLM mRNA expression level” value [1] was “significantly increases in proportion to the treated concentration of ethionamide” and the “HO-1 mRNA expression level” value [1] was “significantly increases in proportion to the treated concentration of ethionamide”. For the same compound, the “NQO1 mRNA expression level” value [1] was “significantly increases in proportion to the treated concentration of ethionamide”, the BDNF expression level [2] was “increases in proportion to the treated concentration of ethionamide” and the HGF expression level [2] was “increases in proportion to the treated concentration of ethionamide”. The IGF-1 expression level [2] was “increases in proportion to the treated concentration of ethionamide” and the VEGF expression level [2] was “increases in proportion to the treated concentration of ethionamide”.
